Test results as given in patent US20240351965A1, “Synthesis and Evaluation of Novel (4-Hydroxyphenyl) Substituted Carbocycles as Potent and Selective Estrogen Receptor Beta Agonists” (Marquette University, priority 2021, published 2024).
Read-outs that look alike come from different tables or passages of the source.

Tests used:
CYP3A4 = target: T1, CYP3A4 (Homo sapiens, UniProt P08684); assay: Cytochrome P450 inhibition (P450-Glo), CYP3A4; format: in vitro ADME
T1 construct: purchased Promega (P450-Glo Screening Systems)
Experimental: (§1) A screen of Cytochrome p450 inhibition was performed using the Promega P450-Glo™ Screening Systems. The Screening Systems' manual instructions were followed for CYP2C9, CYP2D6, or CYP3A4 enzymes with Luciferin-H, Luciferin-ME EGE or Luciferin-PPXE as substrates, respectively. The components of the kits, i.e., membrane enzymes, control enzymes, substrates and potassium phosphate buffer and or TRIS buffer were combined according to the System-manual's recommended final concentrations. Reactions were pre-incubated in white 96-well flat-bottom plates at 37° C. for 10 min before starting reactions with 2×NADPH regeneration buffer. The 96-well plates were incubated according to the recommended times in the linear range for each enzyme/substrate reaction. The reactions were stopped using 2× Luciferin Detection Reagent. After 20 minutes, the luciferase product was detected using a SpectraMax M5 Molecular Devices plate reader on the end-point luminescence setting. Positive control inhibitors for CYP2C9, CYP2D6, and CYP3A4 enzymes were assayed at a final concentration of 10 μM sulfaphenazole, 1 μM quinidine and 5 μM ketoconazole, respectively. Serial dilutions of 5a/b and (±)-11 were assayed at final concentrations of […], 7.812, 3.906, 1.953, 0.977, 0.488 μM. Inhibition data were analyzed using GraphPad Prism® 6 for Windows, ver. 6.07 (Jun. 12, 2015) software. Raw data were normalized against the control enzyme and untreated CYP enzyme means and then analyzed through non-linear regression using log (inhibitor) vs normalized dose-response curves to assess IC50s. Standard deviations were calculated from Best-fit values. Data were normalized to vehicle and positive controls (sulfaphenazole for CYP2C9, quinidine for CYP2D6, and ketoconazole for CYP3A4) and nonlinear square fits of the data were conducted using Prism 6 (GraphPad).

CYP2D6 = target: T2, CYP2D6 (Homo sapiens, UniProt P10635); assay: Cytochrome P450 inhibition (P450-Glo), CYP2D6; format: in vitro ADME
T2 construct: purchased Promega (P450-Glo Screening Systems)
Experimental: as §1

CYP2C9 = target: T3, CYP2C9 (Homo sapiens, UniProt P11712); assay: Cytochrome P450 inhibition (P450-Glo), CYP2C9; format: in vitro ADME; details: for IC50: tested up to 62.5 μM
T3 construct: purchased Promega (P450-Glo Screening Systems)
Experimental: as §1

ERβ [1] = target: T4, ERβ (Homo sapiens, UniProt Q92731); details: cited from earlier work
Target sequence in this assay (Q92731 whole entry): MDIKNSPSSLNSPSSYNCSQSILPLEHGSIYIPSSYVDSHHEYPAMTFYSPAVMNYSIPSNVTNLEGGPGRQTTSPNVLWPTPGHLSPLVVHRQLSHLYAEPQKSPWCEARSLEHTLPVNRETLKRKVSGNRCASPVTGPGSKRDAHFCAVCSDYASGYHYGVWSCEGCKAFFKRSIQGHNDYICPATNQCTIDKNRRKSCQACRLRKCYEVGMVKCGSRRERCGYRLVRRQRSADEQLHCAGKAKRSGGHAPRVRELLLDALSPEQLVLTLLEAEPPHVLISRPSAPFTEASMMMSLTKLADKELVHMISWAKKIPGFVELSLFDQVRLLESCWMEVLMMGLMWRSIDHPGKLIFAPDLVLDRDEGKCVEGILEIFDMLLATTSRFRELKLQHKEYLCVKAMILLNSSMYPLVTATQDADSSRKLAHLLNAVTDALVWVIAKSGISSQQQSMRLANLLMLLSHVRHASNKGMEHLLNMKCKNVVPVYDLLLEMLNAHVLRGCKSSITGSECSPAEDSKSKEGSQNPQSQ

ERβ [2] = target: T4, ERβ; assay: TR-FRET ligand binding displacement assay (LanthaScreen)
Target sequence in this assay (Q92731 264-498 limits assumed): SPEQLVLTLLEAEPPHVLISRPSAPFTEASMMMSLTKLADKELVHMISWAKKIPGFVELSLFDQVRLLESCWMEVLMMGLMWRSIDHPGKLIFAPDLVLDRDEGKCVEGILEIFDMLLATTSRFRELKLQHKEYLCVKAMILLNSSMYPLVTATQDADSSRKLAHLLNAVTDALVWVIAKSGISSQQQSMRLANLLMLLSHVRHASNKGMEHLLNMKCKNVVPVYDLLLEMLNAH

ERβ [3] = target: T4, ERβ; assay: TR-FRET coactivator binding (recruitment) assay; format: biochemical
Target sequence in this assay (Q92731 264-498 limits assumed): as above

[4] = human, probe Luciferin-PPXE, read-out: CYP3A4 inhibition: not inhibited at concentrations up to (abstract)
[5] = read-out: CYP3A4 inhibition: no inhibition up to
[6] = human, probe Luciferin-ME EGE, read-out: CYP2D6 inhibition: not inhibited at concentrations up to (abstract)
[7] = read-out: CYP2D6 inhibition: no inhibition up to

T3 sequence (P11712 whole entry): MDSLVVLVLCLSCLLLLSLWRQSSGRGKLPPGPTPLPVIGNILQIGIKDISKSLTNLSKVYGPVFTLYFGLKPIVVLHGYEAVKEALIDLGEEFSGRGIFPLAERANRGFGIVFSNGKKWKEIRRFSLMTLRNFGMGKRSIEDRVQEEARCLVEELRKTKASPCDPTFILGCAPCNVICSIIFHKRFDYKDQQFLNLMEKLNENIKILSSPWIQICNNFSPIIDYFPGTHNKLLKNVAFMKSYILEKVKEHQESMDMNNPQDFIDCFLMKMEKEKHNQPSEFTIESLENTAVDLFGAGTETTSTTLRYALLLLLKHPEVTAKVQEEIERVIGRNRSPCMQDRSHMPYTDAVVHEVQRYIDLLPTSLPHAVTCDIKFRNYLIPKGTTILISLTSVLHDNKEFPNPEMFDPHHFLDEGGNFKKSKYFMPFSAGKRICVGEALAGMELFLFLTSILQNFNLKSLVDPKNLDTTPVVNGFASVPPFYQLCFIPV
T2 sequence (P10635 whole entry): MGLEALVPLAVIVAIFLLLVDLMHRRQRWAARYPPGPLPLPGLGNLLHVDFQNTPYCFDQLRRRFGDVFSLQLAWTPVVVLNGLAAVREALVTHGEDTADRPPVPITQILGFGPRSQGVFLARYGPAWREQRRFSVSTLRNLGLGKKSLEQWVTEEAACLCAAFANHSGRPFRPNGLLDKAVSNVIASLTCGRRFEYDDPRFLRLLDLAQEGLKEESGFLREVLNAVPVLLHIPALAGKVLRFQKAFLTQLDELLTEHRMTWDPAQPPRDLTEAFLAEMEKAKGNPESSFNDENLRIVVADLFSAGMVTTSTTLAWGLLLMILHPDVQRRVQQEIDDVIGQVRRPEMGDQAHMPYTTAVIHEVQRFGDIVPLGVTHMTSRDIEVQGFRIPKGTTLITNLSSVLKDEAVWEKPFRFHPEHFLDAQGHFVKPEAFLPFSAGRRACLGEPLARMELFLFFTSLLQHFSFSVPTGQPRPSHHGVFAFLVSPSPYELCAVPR
T1 sequence (P08684 whole entry): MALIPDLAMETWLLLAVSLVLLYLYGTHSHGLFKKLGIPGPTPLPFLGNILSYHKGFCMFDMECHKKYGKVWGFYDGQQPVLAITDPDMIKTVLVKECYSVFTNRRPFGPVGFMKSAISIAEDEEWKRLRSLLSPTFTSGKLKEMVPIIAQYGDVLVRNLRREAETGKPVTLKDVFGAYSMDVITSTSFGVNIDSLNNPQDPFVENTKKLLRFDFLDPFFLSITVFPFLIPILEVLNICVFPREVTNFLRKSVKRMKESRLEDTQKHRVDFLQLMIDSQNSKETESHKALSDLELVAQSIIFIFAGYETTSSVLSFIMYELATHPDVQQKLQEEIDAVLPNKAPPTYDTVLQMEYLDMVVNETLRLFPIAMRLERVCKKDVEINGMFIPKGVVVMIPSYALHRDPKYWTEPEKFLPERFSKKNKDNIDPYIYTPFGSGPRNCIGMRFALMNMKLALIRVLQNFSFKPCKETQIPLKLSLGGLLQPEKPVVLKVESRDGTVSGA

Compound | CYP3A4 binding in enzyme kinetic inhibition assay (CYP3A4) | IC50 (CYP3A4; [4]) | IC50 (CYP3A4; [5]) | CYP2D6 binding in enzyme kinetic inhibition assay (CYP2D6) | IC50 (CYP2D6; [6]) | IC50 (CYP2D6; [7]) | CYP2C9 binding in enzyme kinetic inhibition assay (CYP2C9) | IC50 (CYP2C9) | ERβ selectivity (literature) (ERβ [1]) | EC50 (ERβ [1]; read-out: EC50 (literature, ERβ agonist)) | IC50 (ERβ [2]) | IC50 (ERβ [3])
Oc1ccc(C2CCC3(CC2)CC(O)C3)cc1 (racemic) [(±)-11, 7-(4-hydroxyphenyl)spiro[3.5]nonan-2-ol] | does not bind to any of these CYP450 enzymes with significant activity | > 62.5 µM | > 62.5 µM | does not bind to any of these CYP450 enzymes with significant activity | > 62.5 µM | > 62.5 µM | does not bind to any of these CYP450 enzymes with significant activity | > 62.5 µM |  |  |  | 
OCC12CC3CC(C1)C(c1ccc(O)cc1)C(C3)C2 (stereo not shown) [5a/b, 4-(4-Hydroxyphenyl)tricyclo[3.3.1.1^3,7]decane-1-methanol] | weak binding only to CYP2C9 | > 62.5 µM | > 62.5 µM | weak binding only to CYP2C9 | > 62.5 µM | > 62.5 µM |  | 10 ± 0.5 µM |  |  |  | 
OCC1CCCC(c2ccc(O)cc2)CC1 (stereo not shown) [ISP163] |  |  |  |  |  |  |  |  | 318 fold | 0.033 ± 0.005 µM |  | 
O=C1CC2(CCC(c3ccc(O)cc3)CC2)C1 [compound 10, 7-(4-Hydroxyphenyl)spiro[3.5]nonan-2-one] |  |  |  |  |  |  |  |  |  |  | 2.22 ± 2.66 µM | 1.64 ± 0.301 µM
